Test results from patent publication US12637478B2, “Compound, preparation method thereof, and antibiotic composition comprising same” (priority 2020, dated 2026).
≈ marks a conversion by molar mass, not a printed value.

Columns and labels:
S. aureus^MS [1] = test: MIC by broth microdilution (aerobic pathogens), test strain 2; assay type: cell-based; conditions: Staphylococcus aureus
Protocol: (§1) The antibacterial activity of the compounds of Examples 1 to 48 of the present invention against aerobic pathogens were evaluated by measuring the minimum concentration of the antibiotic capable of inhibiting bacterial growth by 90% compared to the growth of the non-drug treated control group. MIC was measured by the broth microdilution method based on CLSI standards [Reference: Clinical and Laboratory Standards Institute Document. (2000) Methods for Dilution Antimicrobial Susceptibility Test for Bacteria that Grow Aerobically-Fifth Edition: M7-A5. CLSI, Villanova, PA].
(§2) All 13 strains such as methicillin susceptible Staphylococcus aureus (MSSA), methicillin resistant Staphylococcus aureus (MRSA), Vancomycin resistant Staphylococcus aureus (VRSA), Staphylococcus epidermidis, methicillin resistant Staphylococcus epidermidis, Enterococcus faecalis, Vancomycin resistant Enterococcus faecalis, Enterococcus faecium, Vancomycin resistant Enterococcus faecium were used.

S. aureus^MS [2] = test: MIC by broth microdilution (aerobic pathogens), test strain 1; assay type: cell-based; conditions: Staphylococcus aureus
Protocol: as §1, §2

E. faecalis^LinR = test: MIC by broth microdilution (aerobic pathogens), test strain 9; assay type: cell-based, Linezolid resistant Enterococcus faecalis; conditions: Enterococcus faecalis; test strain 9, E. faecalis^LinR (linezolid resistant); read-out: MIC
Protocol: as §1, §2

S. epidermis = test: MIC by broth microdilution (aerobic pathogens), test strain 5; assay type: cell-based; conditions: Staphylococcus epidermidis; test strain 5, S. epidermis; read-out: MIC
Protocol: as §1, §2

S. epidermis^MR = test: MIC by broth microdilution (aerobic pathogens), test strain 6; assay type: cell-based, Methicillin resistant Staphylococcus epidermidis; conditions: Staphylococcus epidermidis; test strain 6, S. epidermis^MR (methicillin resistant); read-out: MIC
Protocol: as §1, §2

E. faecalis = test: MIC by broth microdilution (aerobic pathogens), test strain 7; assay type: cell-based; conditions: Enterococcus faecalis; test strain 7, E. faecalis; read-out: MIC
Protocol: as §1, §2

E. faecalis^VanA = test: MIC by broth microdilution (aerobic pathogens), test strain 8; assay type: cell-based, Vancomycin resistant Enterococcus faecalis; conditions: Enterococcus faecalis; test strain 8, E. faecalis^VanA (vancomycin resistant); read-out: MIC
Protocol: as §1, §2

E. faecium^LinR = test: MIC by broth microdilution (aerobic pathogens), test strain 12; assay type: cell-based, Linezolid resistant Enterococcus faecium; conditions: Enterococcus faecium; test strain 12, E. faecium^LinR (linezolid resistant); read-out: MIC
Protocol: as §1, §2

C. difficile 161 = test: MIC by agar dilution against Clostridioides difficile, test strain 16; assay type: cell-based; conditions: test strain 16, C. difficile 161, anaerobic, agar dilution, read-out: MIC
C. difficile 9689 = test: MIC by agar dilution against Clostridioides difficile, test strain 13; assay type: cell-based; conditions: test strain 13, C. difficile 9689, anaerobic, agar dilution, read-out: MIC
C. difficile 181 = test: MIC by agar dilution against Clostridioides difficile, test strain 19; assay type: cell-based; conditions: test strain 19, C. difficile 181, anaerobic, agar dilution, read-out: MIC
C. difficile 152 = test: MIC by agar dilution against Clostridioides difficile, test strain 14; assay type: cell-based; conditions: test strain 14, C. difficile 152, anaerobic, agar dilution, read-out: MIC
C. difficile 173 = test: MIC by agar dilution against Clostridioides difficile, test strain 17; assay type: cell-based; conditions: test strain 17, C. difficile 173, anaerobic, agar dilution, read-out: MIC
C. difficile 159 = test: MIC by agar dilution against Clostridioides difficile, test strain 15; assay type: cell-based; conditions: test strain 15, C. difficile 159, anaerobic, agar dilution, read-out: MIC
C. difficile 174 = test: MIC by agar dilution against Clostridioides difficile, test strain 18; assay type: cell-based; conditions: test strain 18, C. difficile 174, anaerobic, agar dilution, read-out: MIC
[3] = test strain 2, S. aureus^MS, read-out: MIC
[4] = test strain 1, S. aureus^MS, read-out: MIC

MIC (S. aureus^MS [1]; [3]) | MIC (S. aureus^MS [2]; [4]) | MIC (S. epidermis) | MIC (S. epidermis^MR) | MIC (E. faecalis) | MIC (C. difficile 161) | MIC (C. difficile 9689) | MIC (C. difficile 181) | MIC (C. difficile 152) | MIC (C. difficile 173) | MIC (C. difficile 174) | SMILES | further results
– | – | – | – | – | – | – | – | – | – | – | C/C=C1\NC(=O)[C@H]([C@@H](C)O)NC(=O)c2csc(n2)-c2ccc(-c3nc(-c4nc(C(=O)NC5(C(=O)NCCN)CC5)cs4)cs3)nc2-c2csc(n2)[C@H]([C@@H](C)O)NC(=O)c2csc(n2)[C@H](C(C)C)NC(=O)c2csc1n2 [Compound 25] | MIC (S. aureus^MS [1]): 1 µg/mL (≈ 0.885 µM); MIC (S. aureus^MS [2]): 1 µg/mL (≈ 0.885 µM)
0.5 µg/mL (≈ 0.412 µM) | 0.25 µg/mL (≈ 0.206 µM) | – | – | – | – | – | – | – | – | – | C/C=C1\NC(=O)[C@H]([C@@H](C)O)NC(=O)c2csc(n2)-c2ccc(-c3nc(-c4nc(C(=O)NC5(C(=O)NCCCCCCB(O)O)CC5)cs4)cs3)nc2-c2csc(n2)[C@H]([C@@H](C)O)NC(=O)c2csc(n2)[C@H](C(C)C)NC(=O)c2csc1n2 [Compound 27] | MIC (E. faecalis^LinR): 0.5 µg/mL (≈ 0.412 µM)
1 µg/mL (≈ 0.79 µM) | 0.5 µg/mL (≈ 0.395 µM) | 0.25 µg/mL (≈ 0.198 µM) | 0.5 µg/mL (≈ 0.395 µM) | 1 µg/mL (≈ 0.79 µM) | – | – | – | – | – | – | C/C=C1\NC(=O)[C@H]([C@@H](C)O)NC(=O)c2csc(n2)-c2ccc(-c3nc(-c4nc(C(=O)NC5(C(=O)NCCN6CCN(CCCC#N)CC6)CC5)cs4)cs3)nc2-c2csc(n2)[C@H]([C@@H](C)O)NC(=O)c2csc(n2)[C@H](C(C)C)NC(=O)c2csc1n2 [Compound 31] | MIC (E. faecalis^VanA): 1 µg/mL (≈ 0.79 µM)
– | 1 µg/mL (≈ 0.807 µM) | 1 µg/mL (≈ 0.807 µM) | 0.5 µg/mL (≈ 0.404 µM) | – | – | – | – | – | – | – | C/C=C1\NC(=O)[C@H]([C@@H](C)O)NC(=O)c2csc(n2)-c2ccc(-c3nc(-c4nc(C(=O)NC5(C(=O)NCCN6CCN(C7CC7)CC6)CC5)cs4)cs3)nc2-c2csc(n2)[C@H]([C@@H](C)O)NC(=O)c2csc(n2)[C@H](C(C)C)NC(=O)c2csc1n2 [Compound 33] | MIC (E. faecalis^LinR): 0.5 µg/mL (≈ 0.404 µM)
1 µg/mL (≈ 0.797 µM) | 0.5 µg/mL (≈ 0.399 µM) | 0.25 µg/mL (≈ 0.199 µM) | 0.5 µg/mL (≈ 0.399 µM) | 1 µg/mL (≈ 0.797 µM) | – | – | – | – | – | – | C/C=C(\NC(=O)c1csc(-c2csc(-c3ccc4c(n3)-c3csc(n3)[C@H]([C@@H](C)O)NC(=O)c3csc(n3)[C@H](C(C)C)NC(=O)c3csc(n3)/C(=C/C)NC(=O)[C@H]([C@@H](C)O)NC(=O)c3csc-4n3)n2)n1)C(=O)NCCCN1CCN(C(C)C)CC1 [Compound 34] | MIC (E. faecalis^VanA): 1 µg/mL (≈ 0.797 µM)
0.5 µg/mL (≈ 0.407 µM) | 0.25 µg/mL (≈ 0.203 µM) | 0.5 µg/mL (≈ 0.407 µM) | 0.5 µg/mL (≈ 0.407 µM) | 0.5 µg/mL (≈ 0.407 µM) | – | – | – | – | – | – | C/C=C1\NC(=O)[C@H]([C@@H](C)O)NC(=O)c2csc(n2)-c2ccc(-c3nc(-c4nc(C(=O)NC5(C(=O)NCCN6C(=O)CSC6=O)CC5)cs4)cs3)nc2-c2csc(n2)[C@H]([C@@H](C)O)NC(=O)c2csc(n2)[C@H](C(C)C)NC(=O)c2csc1n2 [Compound 36] | MIC (E. faecium^LinR): 1 µg/mL (≈ 0.813 µM)
– | – | – | – | – | 0.25 µg/mL (≈ 0.204 µM) | 0.25 µg/mL (≈ 0.204 µM) | 0.5 µg/mL (≈ 0.408 µM) | 0.25 µg/mL (≈ 0.204 µM) | 0.5 µg/mL (≈ 0.408 µM) | 1 µg/mL (≈ 0.816 µM) | C/C=C1\NC(=O)[C@H]([C@@H](C)O)NC(=O)c2csc(n2)-c2ccc(-c3nc(-c4nc(C(=O)NC5(C(=O)NCCn6ccnc6[N+](=O)[O-])CC5)cs4)cs3)nc2-c2csc(n2)[C@H]([C@@H](C)O)NC(=O)c2csc(n2)[C@H](C(C)C)NC(=O)c2csc1n2 [Compound 39] | MIC (C. difficile 159): 1 µg/mL (≈ 0.816 µM)
– | – | – | – | – | 0.25 µg/mL (≈ 0.202 µM) | 0.5 µg/mL (≈ 0.403 µM) | 1 µg/mL (≈ 0.807 µM) | 0.25 µg/mL (≈ 0.202 µM) | 0.5 µg/mL (≈ 0.403 µM) | 0.25 µg/mL (≈ 0.202 µM) | C/C=C(\NC(=O)c1csc(-c2csc(-c3ccc4c(n3)-c3csc(n3)[C@H]([C@@H](C)O)NC(=O)c3csc(n3)[C@H](C(C)C)NC(=O)c3csc(n3)/C(=C/C)NC(=O)[C@H]([C@@H](C)O)NC(=O)c3csc-4n3)n2)n1)C(=O)NCCn1cc([N+](=O)[O-])nc1C [Compound 41] | MIC (C. difficile 159): 0.5 µg/mL (≈ 0.403 µM)
– | – | – | – | – | 0.25 µg/mL (≈ 0.204 µM) | 0.5 µg/mL (≈ 0.408 µM) | 0.5 µg/mL (≈ 0.408 µM) | 0.25 µg/mL (≈ 0.204 µM) | 0.5 µg/mL (≈ 0.408 µM) | 0.5 µg/mL (≈ 0.408 µM) | C/C=C1\NC(=O)[C@H]([C@@H](C)O)NC(=O)c2csc(n2)-c2ccc(-c3nc(-c4nc(C(=O)NC5(C(=O)NCc6ncc([N+](=O)[O-])n6C)CC5)cs4)cs3)nc2-c2csc(n2)[C@H]([C@@H](C)O)NC(=O)c2csc(n2)[C@H](C(C)C)NC(=O)c2csc1n2 [Compound 44] | –
